Experimental data reported in patent US8138168B1 (Takeda Pharmaceutical Company Limited, priority 2007, dated 2012).

Biological target: T1, Recombinant human renin (Homo sapiens, UniProt P00797)
T1 construct: isolate the active form (residues 67-406); made in house; host or cells: FreeStyle 293-F cells (transient expression of pcDNA3.1(+)/hREN)
T1 sequence (P00797 67-406): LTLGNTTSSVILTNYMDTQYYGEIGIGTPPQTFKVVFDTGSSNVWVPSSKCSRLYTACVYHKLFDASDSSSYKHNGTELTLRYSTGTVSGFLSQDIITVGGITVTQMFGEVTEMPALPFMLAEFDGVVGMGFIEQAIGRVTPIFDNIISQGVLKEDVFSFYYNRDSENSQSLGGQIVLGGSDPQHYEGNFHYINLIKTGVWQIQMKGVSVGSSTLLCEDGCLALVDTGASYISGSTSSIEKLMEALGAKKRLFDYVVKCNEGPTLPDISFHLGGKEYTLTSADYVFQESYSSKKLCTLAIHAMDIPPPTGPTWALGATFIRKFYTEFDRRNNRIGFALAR
Assay: In vitro enzymatic activity assay of renin inhibitors (fluorogenic peptide substrate)
Format: biochemical
Conditions: read-out: IC50 of Exemplified Compounds Against Renin
In short: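 Recombinant human renin (3 nM final) pre-incubated 10 min at 37 °C with compounds in pH 7.4 Hepes/EDTA/DTT/0.1 mg/mL BSA/Brij35 buffer (optionally plus 2% BSA), 5% DMSO final; fluorogenic QXL520/HiLyteFluo488 peptide substrate added.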

Compound | IC50 [nM]
COc1ccc(-c2ccc(C[C@@H](N)CC(=O)N3CCC[C@@H](c4nc5ccccc5n4CCC(N)=O)C3)cc2)cc1 [Compound 487, 3-(2-((R)-1-((R)-3-amino-4-(4′-methoxybiphenyl-4-yl)butanoyl)piperidin-3-yl)-1H-benzo[d]imidazol-1-yl)propanamide] | 100 to 1000
COCCCn1c([C@@H]2CCCN(C(=O)C[C@H](N)Cc3ccc(-c4ccccc4)cc3)C2)nc2ccccc21 [Compound 124, (R)-3-amino-4-(biphenyl-4-yl)-1-((R)-3-(1-(3-methoxypropyl)-1H-benzo[d]imidazol-2-yl)piperidin-1-yl)butan-1-one] | < 100
COCCCn1c([C@@H]2CCCN(C(=O)C[C@H](N)c3cnccc3OC)C2)nc2ccccc21 [Compound 120, (S)-3-Amino-1((R)-3-(1-(3-methoxypropyl)-1H-benzo[d]imidazol-2-yl)piperidin-1-yl)-3-(4-methoxypyridin-3-yl)propan-1-one] | > 1000
COCCCn1c([C@@H]2CCCN(C(=O)C[C@H](N)Cc3ccc(-c4ccn[nH]4)cc3)C2)nc2ccccc21 [Compound 141, (R)-4-(4-(1H-pyrazol-5-yl)phenyl)-3-amino-1-((R)-3-(1-(3-methoxypropyl)-1H-benzo[d]imidazol-2-yl)piperidin-1-yl)butan-1-one] | 100 to 1000
COCCCn1c([C@@H]2CCCN(C(=O)C[C@H](N)Cc3ccc(N4CCN(c5ccccc5)CC4)cc3)C2)nc2ccccc21 [Compound 231, (R)-3-amino-1((R)-3-(1-(3-methoxypropyl)-1H-benzo[d]imidazol-2-yl)piperidin-1-yl)-4-(4-(4-phenylpiperazin-1-yl)phenyl)butan-1-one] | 100 to 1000
COCCCn1c([C@@H]2CCCN(C(=O)C[C@H](N)Cc3ccc(-c4ccc(C(=O)NC(CO)CO)cc4)cc3)C2)nc2ccccc21 [Compound 184, 4′-((R)-2-amino-4-((R)-3-(1-(3-methoxypropyl)-1H-benzo[d]imidazol-2-yl)piperidin-1-yl)-4-oxobutyl)-N-(1,3-dihydroxypropan-2-yl)biphenyl-4-carboxamide] | < 100
COCCCn1c([C@@H]2CCCN(C(=O)C[C@H](N)CNC(=O)Nc3cc(OC)ccc3OC)C2)nc2ccccc21 [Compound 273, 1-((S)-2-amino-4-((R)-3-(1-(3-methoxypropyl)-1H-benzo[d]imidazol-2-yl)piperidin-1-yl)-4-oxobutyl)-3-(2,5-dimethoxyphenyl)urea] | 100 to 1000
O=C(Nc1ccccc1)N1CCCC(c2nc3ccccc3[nH]2)C1 (stereo not drawn) [Compound 8, 3-(1H-benzo[d]imidazol-2-yl)-N-phenylpiperidine-1-carboxamide] | > 1000

Results, then the molecule that gave them:

IC50 [nM] | Compound
< 100 | COCCCn1c([C@@H]2CCCN(C(=O)C[C@H](N)Cc3ccc4ccccc4c3)C2)nc2c(C)cccc21 [Compound 106, (R)-3-Amino-1-((R)-3-(1-(3-methoxypropyl)-4-methyl-1H-benzo[d]imidazol-2-yl)piperidin-1-yl)-4-(naphthalen-2-yl)butan-1-one]
100 to 1000 | CC(=O)NCCn1c([C@@H]2CCCN(C(=O)C[C@H](N)Cc3ccc(-c4ccc5c(c4)OCCO5)cc3)C2)nc2c(C)cccc21 [Compound 477, N-(2-(2-((R)-1-((R)-3-amino-4-(4-(2,3-dihydrobenzo[b][1,4]dioxin-6-yl)phenyl)butanoyl)piperidin-3-yl)-4-methyl-1H-benzo[d]imidazol-1-yl)ethyl)acetamide]
< 100 | COCCCn1c([C@@H]2CCCN(C(=O)C[C@H](N)Cc3ccc(-c4ccc5c(c4)NC(=O)CO5)cc3)C2)nc2ccccc21 [Compound 438, 6-(4-((R)-2-amino-4-((R)-3-(1-(3-methoxypropyl)-1H-benzo[d]imidazol-2-yl)piperidin-1-yl)-4-oxobutyl)phenyl)-2H-benzo[b][1,4]oxazin-3(4H)-one]
< 100 | COCCCn1c([C@@H]2CCCN(C(=O)C[C@H](N)Cc3ccc(-c4ccc5[nH]nc(N)c5c4)cc3)C2)nc2c(C)cccc21 [Compound 500, (R)-3-amino-4-(4-(3-amino-1H-indazol-5-yl)phenyl)-1-((R)-3-(1-(3-methoxypropyl)-4-methyl-1H-benzo[d]imidazol-2-yl)piperidin-1-yl)butan-1-one]
